Measurements reported in patent US12275731B2, “Azaindole inhibitors of wild-type and mutant forms of LRRK2” (DANA-FARBER CANCER INSTITUTE, INC., priority 2018, dated 2025).

Key:
Assay in all cases: KinomeScan profiling
Assay type in all cases: binding
TGFBR2 = TGFBR2 (Homo sapiens, UniProt P37173); settings: TGFBR2, 1 μM; read-out: % control
In short: (§1)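 Normalised RLU (% control; DMSO 100%, positive control 0%) was measured for compounds dosed at 1 μM over 468 kinases, active cut-off <35%.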

RIOK3 = biological target: T1, RIOK3 (Homo sapiens, UniProt O14730); settings: RIOK3, 1 μM; read-out: % control
T1 sequence (O14730 1-519): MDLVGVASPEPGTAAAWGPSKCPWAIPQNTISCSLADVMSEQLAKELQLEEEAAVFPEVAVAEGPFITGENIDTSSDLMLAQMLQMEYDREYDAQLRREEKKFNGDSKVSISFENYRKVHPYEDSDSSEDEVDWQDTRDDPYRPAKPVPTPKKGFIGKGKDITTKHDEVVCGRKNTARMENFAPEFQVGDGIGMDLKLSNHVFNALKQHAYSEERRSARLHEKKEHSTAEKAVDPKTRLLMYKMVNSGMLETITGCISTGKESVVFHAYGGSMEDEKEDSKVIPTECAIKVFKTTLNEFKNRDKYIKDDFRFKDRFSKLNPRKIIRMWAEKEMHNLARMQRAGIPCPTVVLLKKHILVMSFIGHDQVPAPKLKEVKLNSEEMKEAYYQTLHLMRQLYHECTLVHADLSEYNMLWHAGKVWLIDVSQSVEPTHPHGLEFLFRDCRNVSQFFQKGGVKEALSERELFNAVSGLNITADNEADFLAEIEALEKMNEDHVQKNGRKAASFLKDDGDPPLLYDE
In short: as §1

GRK7 = biological target: T2, GRK7 (Homo sapiens, UniProt Q8WTQ7); settings: GRK7, 1 μM; read-out: % control
T2 sequence (Q8WTQ7 1-553): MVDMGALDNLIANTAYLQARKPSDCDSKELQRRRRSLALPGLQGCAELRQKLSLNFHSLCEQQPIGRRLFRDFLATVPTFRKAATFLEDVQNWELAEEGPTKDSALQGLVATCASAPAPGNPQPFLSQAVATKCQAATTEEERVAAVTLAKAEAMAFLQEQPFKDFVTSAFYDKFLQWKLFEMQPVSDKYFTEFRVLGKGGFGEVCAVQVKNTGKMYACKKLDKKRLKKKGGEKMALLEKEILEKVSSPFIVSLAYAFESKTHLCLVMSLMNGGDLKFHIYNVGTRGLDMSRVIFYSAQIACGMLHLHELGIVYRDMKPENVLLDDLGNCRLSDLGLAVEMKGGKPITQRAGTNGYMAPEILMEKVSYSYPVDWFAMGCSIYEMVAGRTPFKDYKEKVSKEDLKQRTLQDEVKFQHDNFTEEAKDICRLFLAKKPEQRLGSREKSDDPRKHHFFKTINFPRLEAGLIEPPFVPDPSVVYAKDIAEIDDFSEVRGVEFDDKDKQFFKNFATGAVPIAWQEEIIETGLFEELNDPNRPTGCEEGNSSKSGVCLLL
In short: as §1

NEK1 = biological target: T3, NEK1 (Homo sapiens, UniProt Q96PY6); settings: NEK1, 1 μM; read-out: % control
T3 sequence (Q96PY6 1-1258): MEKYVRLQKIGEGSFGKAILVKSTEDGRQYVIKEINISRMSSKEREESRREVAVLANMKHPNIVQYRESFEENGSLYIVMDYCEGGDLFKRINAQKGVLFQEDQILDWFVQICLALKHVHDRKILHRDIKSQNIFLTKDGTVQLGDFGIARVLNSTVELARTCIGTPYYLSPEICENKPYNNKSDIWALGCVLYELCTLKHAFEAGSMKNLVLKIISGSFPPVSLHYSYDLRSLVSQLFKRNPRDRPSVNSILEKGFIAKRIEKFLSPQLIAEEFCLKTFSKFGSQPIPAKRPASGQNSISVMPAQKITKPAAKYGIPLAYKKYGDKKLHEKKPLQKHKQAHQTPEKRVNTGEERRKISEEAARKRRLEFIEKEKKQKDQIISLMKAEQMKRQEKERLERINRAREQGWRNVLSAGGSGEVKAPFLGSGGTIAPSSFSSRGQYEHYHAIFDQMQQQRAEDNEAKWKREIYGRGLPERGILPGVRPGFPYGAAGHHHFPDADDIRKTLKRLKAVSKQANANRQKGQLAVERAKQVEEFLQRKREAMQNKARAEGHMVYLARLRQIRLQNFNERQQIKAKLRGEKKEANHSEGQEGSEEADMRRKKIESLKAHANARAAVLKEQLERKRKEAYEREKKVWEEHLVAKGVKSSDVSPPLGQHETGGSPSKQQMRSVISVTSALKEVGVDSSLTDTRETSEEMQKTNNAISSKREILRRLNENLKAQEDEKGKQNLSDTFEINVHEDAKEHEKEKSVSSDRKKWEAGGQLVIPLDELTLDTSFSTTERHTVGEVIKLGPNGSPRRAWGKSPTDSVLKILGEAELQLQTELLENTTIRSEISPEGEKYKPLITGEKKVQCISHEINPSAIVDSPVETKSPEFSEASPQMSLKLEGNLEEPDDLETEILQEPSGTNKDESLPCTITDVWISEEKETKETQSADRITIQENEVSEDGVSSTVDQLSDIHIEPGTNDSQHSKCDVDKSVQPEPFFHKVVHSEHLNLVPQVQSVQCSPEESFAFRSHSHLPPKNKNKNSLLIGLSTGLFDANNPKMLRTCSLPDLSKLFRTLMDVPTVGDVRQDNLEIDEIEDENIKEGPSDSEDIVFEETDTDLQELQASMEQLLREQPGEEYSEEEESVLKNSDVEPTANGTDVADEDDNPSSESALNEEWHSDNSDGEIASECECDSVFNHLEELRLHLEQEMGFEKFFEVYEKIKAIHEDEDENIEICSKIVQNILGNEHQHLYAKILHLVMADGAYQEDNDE
In short: as §1

PIK3CA(E542K) = biological target: T4, PIK3CA(E542K) (Homo sapiens, UniProt P42336, E542K); settings: read-out: % control
T4 construct: purchased KinomeScan® (panel service)
In short: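 First, compounds in DMSO are added at 1 μM to each of 468 kinase assays. Next, RLU signals are normalised between positive control (0%) and DMSO (100%). Finally, kinases under 35% are flagged active.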

[1] = biological target: T5, RSK3(Kin.Dom.2-C-terminal) (Homo sapiens, UniProt Q15349); settings: read-out: % control
T5 construct: RSK3(Kin.Dom.2-C-terminal)
In short: as §1

RET(M918T) = RET(M918T) (Homo sapiens, UniProt P07949, M918T); settings: read-out: % control
In short: as §1

T4 sequence (P42336 whole entry E542K): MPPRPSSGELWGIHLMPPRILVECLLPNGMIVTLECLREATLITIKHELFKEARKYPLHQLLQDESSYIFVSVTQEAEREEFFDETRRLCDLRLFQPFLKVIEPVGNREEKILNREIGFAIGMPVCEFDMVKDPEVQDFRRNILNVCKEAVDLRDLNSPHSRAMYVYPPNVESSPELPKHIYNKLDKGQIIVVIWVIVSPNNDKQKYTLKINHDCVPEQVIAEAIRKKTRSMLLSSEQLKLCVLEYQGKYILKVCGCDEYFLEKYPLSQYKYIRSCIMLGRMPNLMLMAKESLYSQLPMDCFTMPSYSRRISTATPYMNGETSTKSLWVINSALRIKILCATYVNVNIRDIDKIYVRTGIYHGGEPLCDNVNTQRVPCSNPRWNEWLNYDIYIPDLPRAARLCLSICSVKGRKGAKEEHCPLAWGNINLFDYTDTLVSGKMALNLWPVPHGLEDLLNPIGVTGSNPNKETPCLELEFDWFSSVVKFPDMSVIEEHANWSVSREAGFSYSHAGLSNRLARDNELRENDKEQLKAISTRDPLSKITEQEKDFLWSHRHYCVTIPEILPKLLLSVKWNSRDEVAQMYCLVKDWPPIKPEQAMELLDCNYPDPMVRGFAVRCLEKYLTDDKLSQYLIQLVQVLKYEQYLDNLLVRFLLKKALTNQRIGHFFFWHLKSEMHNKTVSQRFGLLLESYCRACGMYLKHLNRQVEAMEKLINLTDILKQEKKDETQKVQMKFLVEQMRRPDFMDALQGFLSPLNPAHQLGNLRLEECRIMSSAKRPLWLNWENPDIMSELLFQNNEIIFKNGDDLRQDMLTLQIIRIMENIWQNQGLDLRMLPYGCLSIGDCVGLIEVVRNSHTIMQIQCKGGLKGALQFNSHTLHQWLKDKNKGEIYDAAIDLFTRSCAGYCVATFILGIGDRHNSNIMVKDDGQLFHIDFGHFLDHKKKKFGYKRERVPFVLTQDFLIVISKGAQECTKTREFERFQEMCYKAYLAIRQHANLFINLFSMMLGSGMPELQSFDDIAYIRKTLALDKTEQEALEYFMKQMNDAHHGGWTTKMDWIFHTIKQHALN
Sequence of RET(M918T) (P07949 29-1114 M918T): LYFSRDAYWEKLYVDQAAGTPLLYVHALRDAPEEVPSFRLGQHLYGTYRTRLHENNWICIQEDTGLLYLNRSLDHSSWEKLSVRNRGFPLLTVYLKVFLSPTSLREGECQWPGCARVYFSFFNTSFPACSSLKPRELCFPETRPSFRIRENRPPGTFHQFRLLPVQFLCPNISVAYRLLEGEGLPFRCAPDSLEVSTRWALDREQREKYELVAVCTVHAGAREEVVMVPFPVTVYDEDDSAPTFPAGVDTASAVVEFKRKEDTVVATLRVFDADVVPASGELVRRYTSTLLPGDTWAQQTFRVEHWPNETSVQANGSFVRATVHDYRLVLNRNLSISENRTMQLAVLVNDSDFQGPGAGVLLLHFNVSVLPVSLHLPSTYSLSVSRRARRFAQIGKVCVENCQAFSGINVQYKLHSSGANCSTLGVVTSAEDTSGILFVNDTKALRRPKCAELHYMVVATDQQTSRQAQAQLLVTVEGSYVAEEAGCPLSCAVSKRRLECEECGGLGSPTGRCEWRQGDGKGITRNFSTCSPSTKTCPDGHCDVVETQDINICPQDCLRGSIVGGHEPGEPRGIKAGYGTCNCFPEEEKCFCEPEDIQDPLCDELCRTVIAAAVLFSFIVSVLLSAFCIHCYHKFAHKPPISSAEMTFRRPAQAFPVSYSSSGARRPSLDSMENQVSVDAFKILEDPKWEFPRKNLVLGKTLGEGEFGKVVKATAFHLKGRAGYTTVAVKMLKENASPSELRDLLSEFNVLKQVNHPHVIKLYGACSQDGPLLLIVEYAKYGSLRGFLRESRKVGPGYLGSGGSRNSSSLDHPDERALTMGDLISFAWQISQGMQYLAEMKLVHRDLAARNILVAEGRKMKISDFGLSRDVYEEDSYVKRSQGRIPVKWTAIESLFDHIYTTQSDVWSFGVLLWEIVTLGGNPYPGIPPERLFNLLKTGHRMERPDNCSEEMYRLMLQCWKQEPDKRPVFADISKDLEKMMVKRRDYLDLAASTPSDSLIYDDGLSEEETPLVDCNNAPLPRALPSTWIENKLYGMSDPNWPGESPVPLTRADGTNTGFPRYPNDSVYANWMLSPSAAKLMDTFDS
Sequence of TGFBR2 (P37173 23-567): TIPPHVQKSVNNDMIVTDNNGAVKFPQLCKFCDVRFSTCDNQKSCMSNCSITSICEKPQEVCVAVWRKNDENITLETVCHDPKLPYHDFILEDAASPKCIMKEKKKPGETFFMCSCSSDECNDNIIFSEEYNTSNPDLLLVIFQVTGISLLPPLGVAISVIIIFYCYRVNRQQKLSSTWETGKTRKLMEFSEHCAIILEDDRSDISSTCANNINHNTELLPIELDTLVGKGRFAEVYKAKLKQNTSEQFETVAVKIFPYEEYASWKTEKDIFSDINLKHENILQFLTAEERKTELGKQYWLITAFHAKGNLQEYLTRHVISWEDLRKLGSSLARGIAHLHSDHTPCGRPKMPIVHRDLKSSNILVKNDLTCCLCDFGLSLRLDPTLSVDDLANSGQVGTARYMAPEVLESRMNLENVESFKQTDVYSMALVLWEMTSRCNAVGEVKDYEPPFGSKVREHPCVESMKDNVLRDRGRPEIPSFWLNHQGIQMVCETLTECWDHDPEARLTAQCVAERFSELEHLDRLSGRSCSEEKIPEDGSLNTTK
T5 sequence (Q15349 415-672 limits assumed): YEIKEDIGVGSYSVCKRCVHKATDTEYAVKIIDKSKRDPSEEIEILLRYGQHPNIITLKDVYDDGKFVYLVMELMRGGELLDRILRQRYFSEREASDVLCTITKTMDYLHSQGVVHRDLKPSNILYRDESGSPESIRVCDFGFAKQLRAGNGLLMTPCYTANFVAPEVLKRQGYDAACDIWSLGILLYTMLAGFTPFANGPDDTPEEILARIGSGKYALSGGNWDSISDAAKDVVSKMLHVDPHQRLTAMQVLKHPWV

Row | Compound | remaining binding at 1 µM (TGFBR2) [%] | remaining binding at 1 µM (RIOK3) [%] | remaining binding at 1 µM (GRK7) [%] | remaining binding at 1 µM (NEK1) [%] | remaining binding at 1 µM (PIK3CA(E542K)) [%] | remaining binding at 1 µM [1] [%] | remaining binding at 1 µM (RET(M918T)) [%]
1 | CNc1c(-c2cnn([C@H]3CCN(C(C)=O)C[C@@H]3F)c2)cnc2[nH]cc(Cl)c12 [Compound 77, 1-((3S,4S)-4-(4-(3-chloro-4-(methylamino)-1H-pyrrolo[2,3-b]pyridin-5-yl)-1H-pyrazol-1-yl)-3-fluoropiperidin-1-yl)ethan-1-one] | 100 | 24 | 100 | 96 | 100 | 100 | 33
2 | O=C(c1ccc(-c2cnc3[nH]cc(Cl)c3c2NC2CCCC2)cc1)N1CCC(N2CCOCC2)CC1 [Compound 101, (4-(3-chloro-4-(cyclopentylamino)-1H-pyrrolo[2,3-b]pyridin-5-yl)phenyl)(4-morpholinopiperidin-1-yl)methanone] | 100 | 50 | 94 | 100 | 98 | 77 | 95
3 | CNc1c(-c2ccc(C(=O)N3CCC(N4CCOCC4)CC3)cc2)cnc2[nH]cc(Cl)c12 [Compound 96, (4-(3-chloro-4-(methylamino)-1H-pyrrolo[2,3-b]pyridin-5-yl)phenyl)(4-morpholinopiperidin-1-yl)methanone] | 100 | 36 | 100 | 100 | 100 | 78 | 72
